According to US11897851B2, “Heterocyclic GLP-1 agonists” (Gasherbrum Bio, Inc., priority 2021, dated 2024):

Biological target: T1, GLP-1 Receptor (Homo sapiens, UniProt P43220)
T1 construct: host or cells: HEK293/GLP1R/CRE-LUC (HEK293/CRE-Luc stably expressing the GLP-1 receptor)
Assay: GLP-1R agonist cAMP stimulation assay (HEK293/GLP1R/CRE-LUC cells, Cisbio cAMP dynamic 2 kit);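 note: compounds tested in half-log serial dilution, cAMP detected with cAMP-d2 and anti-cAMP cryptate antibody reagents after 1 h at room temperature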
Type: cell-based
Details: HEK293/CRE-Luc cell line stably expressing the GLP-1 Receptor; 1000 cells/well; 30 min at 37° C.; 0.5 mM IBMX, 0.1% BSA; read-out: GLP1R cAMP Stimulation DR: EC50

T1 sequence (P43220 24-463, species assumed): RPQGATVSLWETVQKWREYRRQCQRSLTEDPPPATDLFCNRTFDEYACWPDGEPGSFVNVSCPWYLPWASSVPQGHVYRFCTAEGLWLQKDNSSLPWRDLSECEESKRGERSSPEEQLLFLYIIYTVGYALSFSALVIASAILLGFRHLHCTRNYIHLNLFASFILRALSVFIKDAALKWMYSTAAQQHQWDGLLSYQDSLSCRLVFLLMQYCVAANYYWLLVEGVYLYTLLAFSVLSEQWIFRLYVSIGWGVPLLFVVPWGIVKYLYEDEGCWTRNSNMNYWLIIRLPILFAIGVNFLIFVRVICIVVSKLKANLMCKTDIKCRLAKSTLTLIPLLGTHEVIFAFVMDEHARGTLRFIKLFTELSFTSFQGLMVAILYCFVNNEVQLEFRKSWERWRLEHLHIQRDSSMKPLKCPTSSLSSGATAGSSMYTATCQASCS

| Structure (SMILES) | EC50 [nM] |
| --- | --- |
| Cc1cc(-c2nnc(C(F)(F)F)[nH]2)cnc1CN1CCC(c2cccc3c2O[C@@](C)(c2ccc(C#N)cc2F)O3)CC1 [Compound 286, 3-fluoro-4-[(2S)-2-methyl-4-[1-({3-methyl-5-[5-(trifluoromethyl)-4H-1,2,4-triazol-3-yl]pyridin-2-yl}methyl)piperidin-4-yl]-2H-1,3-benzodioxol-2-yl]benzonitrile] | 1.38 |
| CCn1cncc1Cn1c(/C=C(\C)C(=O)O)cnc1CN1CCC(c2cccc3c2OC(C)(c2ccc(Cl)cc2F)O3)CC1 (centres unmarked) [Compound 138, (E)-3-(2-((4-(2-(4-chloro-2-fluorophenyl)-2-methylbenzo[d][1,3]dioxol-4-yl)piperidin-1-yl)methyl)-1-((1-ethyl-1H-imidazol-5-yl)methyl)-1H-imidazol-5-yl)-2-methylacrylic acid] | 0.0034 |
| Cc1ncoc1Cn1c(/C=C/C(=O)O)cnc1CN1CCC(c2cccc3c2OC[C@@H](c2ccc(Cl)cc2)O3)CC1 [Compound 199a, (R,E)-3-(2-((4-(2-(4-chlorophenyl)-2,3-dihydrobenzo [b][1,4]dioxin-5-yl)piperidin-1-yl)methyl)-1-((4-methyloxazol-5-yl)methyl)-1H-imidazol-5-yl)acrylic acid] | 1.6 |
| CC1(c2ccc(Cl)cc2F)Oc2cccc(C3CCN(Cc4ncc(/C=C/C(=O)O)n4CC4(C#N)CC4)CC3)c2O1 (centres unmarked) [Compound 192, (E)-3-(2-((4-(2-(4-chloro-2-fluorophenyl)-2-methylbenzo[d][1,3]dioxol-4-yl)piperidin-1-yl)methyl)-1-((1-cyanocyclopropyl)methyl)-1H-imidazol-5-yl)acrylic acid] | 0.073 |
| COCCn1c(/C=C(\C)C(=O)O)nnc1CN1CCC(c2cccc(OCc3ccc(Cl)cc3F)n2)CC1 [Compound 224, (E)-3-(5-((4-(6-((4-chloro-2-fluorobenzyl)oxy)pyridin-2-yl)piperidin-1-yl)methyl)-4-(2-methoxyethyl)-4H-1,2,4-triazol-3-yl)-2-methylacrylic acid] | 2.1 |
| COCCn1c(CCC(=O)O)cnc1CN1CCC(c2cccc3c2OC(C)(c2ccc(Cl)cc2F)O3)CC1 (centres unmarked) [Compound 237, 3-(2-((4-(2-(4-chloro-2-fluorophenyl)-2-methylbenzo[d][1,3]dioxol-4-yl)piperidin-1-yl)methyl)-1-(2-methoxyethyl)-1H-imidazol-5-yl)propanoic acid] | 0.29 |
| COCCc1cc(-c2nnc(C(F)(F)F)[nH]2)cnc1CN1CCC(c2cccc3c2O[C@@](C)(c2ccc(C#N)cc2F)O3)CC1 [Compound 260, 3-fluoro-4-[(2S)-4-(1-{[3-(2-methoxyethyl)-5-[5-(trifluoromethyl)-4H-1,2,4-triazol-3-yl]pyridin-2-yl]methyl}piperidin-4-yl)-2-methyl-2H-1,3-benzodioxol-2-yl]benzonitrile] | 2.3 |
| CCn1cncc1Cn1c(/C=C/C(=O)O)cnc1CN1CCC(c2cccc3c2OC[C@@H](c2ccc(Cl)cc2)O3)CC1 [Compound 207a, (R,E)-3-(2-((4-(2-(4-chlorophenyl)-2,3-dihydrobenzo [b][1,4]dioxin-5-yl)piperidin-1-yl)methyl)-1-((1-ethyl-1H-imidazol-5-yl)methyl)-1H-imidazol-5-yl)acrylic acid] | 0.016 |
| CC1(c2ccc(Cl)cc2F)Oc2cccc(C3CCN(Cc4ncc(CCC(=O)O)n4C[C@@H]4CCO4)CC3)c2O1 (stereo partly drawn) [Compound 239, 3-(2-((4-(2-(4-chloro-2-fluorophenyl)-2-methylbenzo[d][1,3]dioxol-4-yl)piperidin-1-yl)methyl)-1-(((S)-oxetan-2-yl)methyl)-1H-imidazol-5-yl)propanoic acid] | 0.45 |
| CN(CCn1c(/C=C/C(=O)O)cnc1CN1CCC(c2cccc3c2OC(C)(c2ccc(Cl)cc2F)O3)CC1)S(C)(=O)=O (centres unmarked) [Compound 176, (E)-3-(2-((4-(2-(4-chloro-2-fluorophenyl)-2-methylbenzo[d][1,3]dioxol-4-yl)piperidin-1-yl)methyl)-1-(2-(N-methylmethylsulfonamido)ethyl)-1H-imidazol-5-yl)acrylic acid] | 0.058 |
| CCC(O)Cn1c(/C=C/C(=O)O)cnc1CN1CCC(c2cccc3c2OC(C)(c2ccc(Cl)cc2F)O3)CC1 (centres unmarked) [Compound 185, (E)-3-(2-((4-(2-(4-chloro-2-fluorophenyl)-2-methylbenzo[d][1,3]dioxol-4-yl)piperidin-1-yl)methyl)-1-(2-hydroxybutyl)-1H-imidazol-5-yl)acrylic acid] | 20 |
| CCn1cncc1Cn1c(/C=C(\C)C(=O)O)cnc1CN1CCC(c2cccc(OCc3ccc(Cl)cn3)n2)CC1 [Compound 220, (E)-3-(2-((4-(6-((5-chloropyridin-2-yl)methoxy)pyridin-2-yl)piperidin-1-yl)methyl)-1-((1-ethyl-1H-imidazol-5-yl)methyl)-1H-imidazol-5-yl)-2-methylacrylic acid] | 0.11 |
| Cc1ncccc1Cn1c(/C=C/C(=O)O)cnc1CN1CCC(c2cccc3c2OC(C)(c2ccc(Cl)cc2F)O3)CC1 (centres unmarked) [Compound 147, (E)-3-(2-((4-(2-(4-chloro-2-fluorophenyl)-2-methylbenzo[d][1,3]dioxol-4-yl)piperidin-1-yl)methyl)-1-((2-methylpyridin-3-yl)methyl)-1H-imidazol-5-yl)acrylic acid] | 0.045 |
| C[C@H](c1ccccc1)n1c(/C=C/C(=O)O)cnc1CN1CCC(c2cccc3c2OC(C)(c2ccc(Cl)cc2F)O3)CC1 (stereo partly drawn) [Compound 153, (E)-3-(2-((4-(2-(4-chloro-2-fluorophenyl)-2-methylbenzo[d][1,3]dioxol-4-yl)piperidin-1-yl)methyl)-1-((R)-1-phenylethyl)-1H-imidazol-5-yl)acrylic acid] | 18 |
| Fc1cc(Cl)ccc1COc1cccc(C2CCN(Cc3ccc(-c4nn[nH]n4)cn3)CC2)n1 [Compound 127, 2-((4-(6-((4-chloro-2-fluorobenzyl)oxy)pyridin-2-yl)piperidin-1-yl)methyl)-5-(2H-tetrazol-5-yl)pyridine] | 147 |
| Cc1ncoc1Cn1c(CCC(=O)O)cnc1CN1CCC(c2cccc3c2OC(C)(c2ccc(Cl)cc2F)O3)CC1 (centres unmarked) [Compound 241, 3-(2-((4-(2-(4-chloro-2-fluorophenyl)-2-methylbenzo[d][1,3]dioxol-4-yl)piperidin-1-yl)methyl)-1-((4-methyloxazol-5-yl)methyl)-1H-imidazol-5-yl)propanoic acid] | 0.21 |
| COC1(Cn2c(/C=C/C(=O)O)cnc2CN2CCC(c3cccc4c3OC(C)(c3ccc(Cl)cc3F)O4)CC2)CCC1 (centres unmarked) [Compound 166, (E)-3-(2-((4-(2-(4-chloro-2-fluorophenyl)-2-methylbenzo[d][1,3]dioxol-4-yl)piperidin-1-yl)methyl)-1-((1-methoxycyclobutyl)methyl)-1H-imidazol-5-yl)acrylic acid] | 0.069 |
| O=C(O)/C=C/c1nnc(CN2CCC(c3cccc(OCc4ccc(Cl)cc4F)n3)CC2)n1CC(F)F [Compound 230, (E)-3-(5-((4-(6-((4-chloro-2-fluorobenzyl)oxy)pyridin-2-yl)piperidin-1-yl)methyl)-4-(2,2-difluoroethyl)-4H-1,2,4-triazol-3-yl)acrylic acid] | 41 |
| O=C(O)/C=C/c1ccc(CN2CCC(c3cccc(OCc4ccc(Cl)cc4F)n3)CC2)nc1 [Compound 123, (E)-3-(6-((4-(6-((4-chloro-2-fluorobenzyl)oxy)pyridin-2-yl)piperidin-1-yl)methyl)pyridin-3-yl)acrylic acid] | 109 |
| CC1(c2ccc(Cl)cc2F)Oc2cccc(C3CCN(Cc4ncc(/C=C/C(=O)O)n4CCOC4CC4)CC3)c2O1 (centres unmarked) [Compound 201, (E)-3-(2-((4-(2-(4-chloro-2-fluorophenyl)-2-methylbenzo[d][1,3]dioxol-4-yl)piperidin-1-yl)methyl)-1-(2-cyclopropoxyethyl)-1H-imidazol-5-yl)acrylic acid] | 0.034 |
| CCc1ncoc1Cn1c(/C=C/C(=O)O)cnc1CN1CCC(c2cccc3c2OC(C)(c2ccc(Cl)cc2F)O3)CC1 (centres unmarked) [Compound 184, (E)-3-(2-((4-(2-(4-chloro-2-fluorophenyl)-2-methylbenzo[d][1,3]dioxol-4-yl)piperidin-1-yl)methyl)-1-((4-ethyloxazol-5-yl)methyl)-1H-imidazol-5-yl)acrylic acid] | 0.24 |
| O=C(O)CCc1cnc(CN2CCC(c3cccc(OCc4ccc(Cl)cc4F)n3)CC2)n1C[C@@H]1CCO1 [Compound 102a, (S)-3-(2-((4-(6-((4-chloro-2-fluorobenzyl)oxy)pyridin-2-yl)piperidin-1-yl)methyl)-1-(oxetan-2-ylmethyl)-1H-imidazol-5-yl)propanoic acid] | 1.6 |
| CC1(c2ccc(Cl)cc2F)Oc2cccc(C3CCN(Cc4ncc(/C=C/C(=O)O)n4CCN4CCOC4=O)CC3)c2O1 (centres unmarked) [Compound 200, (E)-3-(2-((4-(2-(4-chloro-2-fluorophenyl)-2-methylbenzo[d][1,3]dioxol-4-yl)piperidin-1-yl)methyl)-1-(2-(2-oxooxazolidin-3-yl)ethyl)-1H-imidazol-5-yl)acrylic acid] | 0.22 |
| Cc1ncsc1Cn1c(/C=C/C(=O)O)cnc1CN1CCC(c2cccc3c2OC(C)(c2ccc(Cl)cc2F)O3)CC1 (centres unmarked) [Compound 189, (E)-3-(2-((4-(2-(4-chloro-2-fluorophenyl)-2-methylbenzo[d][1,3]dioxol-4-yl)piperidin-1-yl)methyl)-1-((4-methylthiazol-5-yl)methyl)-1H-imidazol-5-yl)acrylic acid] | 0.022 |
| CC(=O)N(C)CCn1c(/C=C/C(=O)O)cnc1CN1CCC(c2cccc3c2OC(C)(c2ccc(Cl)cc2F)O3)CC1 (centres unmarked) [Compound 175, (E)-3-(2-((4-(2-(4-chloro-2-fluorophenyl)-2-methylbenzo[d][1,3]dioxol-4-yl)piperidin-1-yl)methyl)-1-(2-(N-methylacetamido)ethyl)-1H-imidazol-5-yl)acrylic acid] | 0.047 |
| O=C(O)/C=C/c1nnc(CN2CCC(c3cccc(OCc4ccc(Cl)cc4F)n3)CC2)n1CC1CCCO1 (centres unmarked) [Compound 231, (E)-3-(5-((4-(6-((4-chloro-2-fluorobenzyl)oxy)pyridin-2-yl)piperidin-1-yl)methyl)-4-((tetrahydrofuran-2-yl)methyl)-4H-1,2,4-triazol-3-yl)acrylic acid] | 0.88 |
